Laboratory results as given in PubChem BioAssay (NCI).
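Step 1: Grow cells in 96-well plates. Step 2: Expose to compound for 48 hours at 5 concentrations. Step 3: Interpolate endpoints linearly; if unreached, use highest concentration. GI50 is the concentration that inhibits growth by half. TGI is the concentration that stops growth completely.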

Tests used:
Assay in all cases: NCI-60 cell line screen, 48 h
786-0 renal = tested on: 786-0 renal
HCT-116 colon = tested on: HCT-116 colon
HOP-62 NSCLC = tested on: HOP-62 NSCLC
NCI-H522 lung = tested on: NCI-H522 lung
OVCAR-3 ovarian = tested on: OVCAR-3 ovarian
RPMI-8226 leukemia = tested on: RPMI-8226 leukemia
SF-295 CNS = tested on: SF-295 CNS
SF-539 CNS = tested on: SF-539 CNS
SK-MEL-28 melanoma = tested on: SK-MEL-28 melanoma
SN12C renal = tested on: SN12C renal

SMILES	TGI (786-0 renal) [µM]	TGI (HCT-116 colon) [µM]	TGI (HOP-62 NSCLC) [µM]	TGI (NCI-H522 lung) [µM]	TGI (OVCAR-3 ovarian) [µM]	TGI (RPMI-8226 leukemia) [µM]	TGI (SF-295 CNS) [µM]	TGI (SF-539 CNS) [µM]	TGI (SK-MEL-28 melanoma) [µM]	TGI (SN12C renal) [µM]	GI50 (HCT-116 colon) [µM]	GI50 (HOP-62 NSCLC) [µM]	GI50 (NCI-H522 lung) [µM]	GI50 (OVCAR-3 ovarian) [µM]	GI50 (RPMI-8226 leukemia) [µM]	GI50 (SF-295 CNS) [µM]	GI50 (SF-539 CNS) [µM]	GI50 (SK-MEL-28 melanoma) [µM]	GI50 (SN12C renal) [µM]
Oc1ccccc1C=Nc1ccccc1N=Cc1ccccc1O	> 100	> 100	> 100	45.7	> 100	> 100	> 100	> 100	> 100	> 100									
COC1CCC(n2c([C@@H]3CCCC(=O)N3c3ccc(F)c(F)c3)nc3cc(-c4c(C)noc4C)ccc32)CC1 (some centres undefined)		22.4	> 100	19.8	32.3	8.21	29	23	28.1	29.6	10	4.46	2.93	10.5	0.703	6.72	9.79	11.8	10.3
CC(C)C[C@H](NC(=O)[C@H](CCc1ccccc1)NC(=O)c1ccc2ccccc2n1)B(O)O	0.706	0.0595	0.658	< 0.0405	0.0818	> 39.1	0.305	< 0.0225	0.055	0.486									
CC1(CO)C(=O)OC12CCCCC2 (centres undefined)	> 100	> 100	> 100	> 100	> 100	> 100	> 100	> 100	> 100	> 100									
O=[N+]([O-])c1ccc(-[n+]2ccc3ccccc3c2)c([N+](=O)[O-])c1	3.24	5.95	20	3.74	6.2	6.68	28.5	12	8.25	6.82									
O=[N+]([O-])c1ccc(Cl)cc1N/N=C/c1cccs1	> 100	> 100	> 100	> 100	> 100	> 100	> 100	> 100	> 100	> 100									
Cc1nc2ccccc2cc1C[N+]12CN3CN(CN(C3)C1)C2	37.8	33.2	69.9	38.2	86.2	> 100	54.6	64.5	45.1	48.1									
C=C1[C@H](OCC(C)C)[C@@H](OC(=O)C(C)CC)[C@@H](O)C(C)(C)/C=C/[C@H](C)C(=O)[C@@]2(O)C[C@H](C)[C@H](O)[C@@H]2[C@H]1OC(=O)C(C)CC (some centres undefined)	> 20	> 20	> 10.5	> 20	> 13.7	12	> 16.9	> 14.9	> 20	> 20									
Cc1nc(N)nc(N)c1N1CCN(Cc2ccccc2)CC1	> 100	> 100	> 100	> 93.5	> 100	> 95.6	> 100	> 100	> 100	> 100									
CCOC(=O)/C=C(/C(=O)OCC)n1ccc(=O)[nH]c1=O	11.3	7.14	35.7	2.72	12.8	11.3	34.7	34.8	18.4	19.6									
C/C(=N\NC(=O)N/N=C(\C)c1ccccn1)c1ccccn1	> 51.5	> 100	> 100	> 100	> 100	> 100	> 100	3.04	> 100	> 100									
O=Cc1cc(O)c(O)c(/C=N/n2c3ccccc3c3ccccc32)c1	20.7	31.2	28	7.03	10.1	6.49	27.7	24.7	42.1	18.2									
N#CI1OC(C(F)(F)F)(C(F)(F)F)c2ccccc21	27.2	30.4	> 100	27.3	29.2	> 100	> 100	36.9	37.4	68									
COc1ccc(CCC2NCCc3cc(OC)c(OC)cc32)cc1 (centres undefined)	> 100	> 100	> 100	> 100	> 100	> 100	> 100	> 100	> 100	> 100									
CCOC(=O)C12C(=O)CCN1CCc1ccccc1C2C (centres undefined)	> 100	> 100	> 100	> 100	> 100	> 100	> 100	> 100	> 100	> 100									
O=C1NC(=S)NC(=O)C1=Cc1ccc2ccccc2n1	> 100	> 100	> 100	> 100	> 100	> 100	> 100	> 100	> 100	> 100									
CSc1nc(=O)c(C#N)c(-c2ccccc2)n1C1OC(COC(C)=O)C(OC(C)=O)C(OC(C)=O)C1OC(C)=O (centres undefined)	> 100	> 100	> 100	> 100	> 100	> 100	> 100	> 100	> 100	> 100									
CCOC(=O)CN(Cc1ccccc1)Cc1c(C(=O)c2ccccc2)c2ccccc2n1C(=O)c1ccccc1	> 100	> 100	> 100	> 100	> 100	> 100	> 100	> 100	> 100	> 100									
Cc1nc2sccn2c1C(=O)OCCOCCOCCOCCOC(=O)c1c(C)nc2sccn12	> 100	> 100	> 100	> 100	> 100	> 100	> 100	> 100	> 100	> 100									
Cc1ccnc2sc3ccccc3c(=O)c12	> 100	> 100	> 100	99.2	> 100	> 100	> 100	> 100	> 100	> 100									
CCOC(=O)c1ccc(NC(NC(=O)CC)(C(F)(F)F)C(F)(F)F)cc1	> 100	> 100	> 100	> 100	> 100	> 100	> 100	> 100	> 100										

SMILES	TGI (786-0 renal) [µM]	TGI (HCT-116 colon) [µM]	TGI (HOP-62 NSCLC) [µM]	TGI (NCI-H522 lung) [µM]	TGI (OVCAR-3 ovarian) [µM]	TGI (RPMI-8226 leukemia) [µM]	TGI (SF-295 CNS) [µM]	TGI (SF-539 CNS) [µM]	TGI (SK-MEL-28 melanoma) [µM]	TGI (SN12C renal) [µM]	GI50 (HCT-116 colon) [µM]	GI50 (HOP-62 NSCLC) [µM]	GI50 (NCI-H522 lung) [µM]	GI50 (OVCAR-3 ovarian) [µM]	GI50 (RPMI-8226 leukemia) [µM]	GI50 (SF-295 CNS) [µM]	GI50 (SF-539 CNS) [µM]	GI50 (SK-MEL-28 melanoma) [µM]	GI50 (SN12C renal) [µM]
CN(C)/C=N/S(=O)(=O)c1nn2c(C=O)c(-c3cc4ccccc4oc3=O)nc2s1	5.24	5.89	> 59.2	3.09	17.3	30.4	> 100	61	12.1	24.5									
Nc1ccc(-c2nc3cc(F)ccc3s2)cc1	> 100	> 100	39.2	> 100	> 100	> 100	> 85.7	> 100	> 100	> 100									
CCOC(=O)C1=CN(C(=O)c2ccccc2)CCC1Cc1ccccc1 (centres undefined)	> 100	84.4	> 100	40.5	> 100	36.6	> 100	63.6	63.3	57.4									
Cc1ccc(Nc2ccc(Nc3ccc(C)cc3S(=O)(=O)O)c3c2C(=O)c2ccccc2C3=O)c(S(=O)(=O)O)c1	> 100	> 100	> 100	> 100	> 100	> 100		> 100	> 100	> 100									
Cc1ccc(N(C(=O)CC(=O)N2N=C(c3ccccc3)C(N=Nc3ccc([N+](=O)[O-])cc3)C2=O)C(=O)c2ccc(Cl)cc2)cc1 (centres undefined)	30.5	22.4	29.8	9.76	> 91.6	> 59.1	25.6	35.6	> 100	> 81.1									
C/C(=C/c1c(C)[nH]c(=O)[nH]c1=O)C(=O)O		> 1380	> 1380	> 1380	> 1380	> 1380	> 1380	> 1380	> 1380	> 1380									
O=C1C(CN2CCCC2)CCCC1CN1CCCC1 (centres undefined)	2.42	3.28	> 71.1	0.29	9.62	3.97	> 56.4	16.1	8.94	32.5									
CC(C)(C)OC(=O)NCCNC(=O)CN(CC(=O)O)C1CCCCC1N(CC(=O)O)CC(=O)O (centres undefined)	> 100	> 100	> 100	> 100	> 100	> 100	> 100	> 100	> 100	> 100									
OC1(c2ccc(Cl)cc2)c2ccccc2C2=NCc3ccccc3CN21 (centres undefined)	19.4	19.2	21.9	27.7	6.33	> 48.6	28.8	24.4	9.58	> 52.4									
Cc1nn(-c2ccccc2)c2c1N=C(C(=O)O)CC(c1ccccc1)=N2	> 10	> 10	> 10	> 10	> 10	> 10	> 10	> 10	> 10	> 10									
CC(CC(C)(C)[N+](C)(C)C)[N+](C)(C)C (centres undefined)	> 100	> 100	> 100	> 100	> 100	> 100	> 100	> 100	> 100	> 100									
O=C(NNCc1ccccc1O)c1ccccc1O	> 100	> 100	> 100	> 100	6.29	> 100	17.4	> 100	> 100	> 100									
CC(=O)N1C(OCc2ccccc2)CCN1c1ccccc1 (centres undefined)	> 10	> 10	> 10	> 10	> 10	> 10	> 10	> 10	> 10	> 10									
O=C(CC(=O)Nc1ccccc1Cl)NNC(Sc1ccccc1)c1cc(N=Nc2ccc(Br)cc2)ccc1O (centres undefined)	2.42	1.31	8.67	> 10	2.91	> 10	8.39	3.8	> 10	> 10									
c1csc(-c2nnc(C34CC5CC(CC(C5)C3)C4)o2)c1	60.2	> 100	> 100	> 100	38.5	77.5	> 100	40.1	> 100	> 100									
Cc1ccc(CC(=O)Nc2ccc(NC(=O)CNC(=O)/C=C/c3ccc(-c4ccccc4)cc3)cc2C(=O)c2ccccc2)cc1	5.48	2.65	6.95	18.4	19.1	29.2	4.86	8.85	66.6	9.93									
O=C1OC(C(O)C(O)C(O)CO)C(O)C1O (centres undefined)	> 100	> 100	> 100	> 100	> 100	> 100	> 100	> 100	> 100	> 100									
Cc1ccc(NC(=O)CC(=O)N2N=C(c3ccccc3)C(N=Nc3ccc(S(=O)(=O)CCOS(=O)(=O)O)cc3)C2=O)cc1 (centres undefined)	> 100	> 100	> 100	> 100	> 100	> 100	> 100	> 100	> 100	> 100									
COc1ccc(/C=C/C(C(=O)O)C(=O)O)cc1	> 100	> 100	> 100	> 100	> 100	> 100	> 100	> 100	> 100	> 100									
COc1cnnc2c(C)c(-c3ccccc3)nn12	> 100	> 100	> 100	> 100	> 100	> 100	> 100	> 100	> 100	> 100									
CC(C)(Oc1ccc(C(=O)c2ccc(Cl)cc2)cc1Cl)C(=O)N1CCN(c2ccccc2)CC1	> 100	> 100	> 100	> 100	> 100	> 100	> 100	> 100	> 100										
